According to PMC4465063 (Mucosal immunology, 2014):

Experiments:
[1] = tested on: purified cathepsin G; settings: purified enzyme, in vitro; cited from earlier work
[2] = tested on: purified NE; settings: purified enzyme, in vitro; cited from earlier work
[3] = tested on: plasmin; settings: cited from earlier work
[4] = tested on: cathepsin G; settings: cited from earlier work
[5] = tested on: neutrophils; settings: in vitro; cited from earlier work
[6] = tested on: neutrophil elastase (NE); settings: cited from earlier work
[7] = tested on: K. pneumoniae; assay: In vivo neutrophil microbial killing assay; parameters: species or system Klebsiella pneumoniae strain 43816; settings: thbs1^−/− mice; 10 µg/mouse i.p. 30 min prior to K. pneumoniae i.p.

Ac-DNCPFHYNP-NH2 [DP-9]
inhibition of purified cathepsin G [1]: ability to inhibit activity of purified cathepsin G in vitro

Ac-DNCPYVPNA-NH2 [DA-9]
inhibition of purified cathepsin G [1]: without reactive-site sequence similarity or known inhibitory activity
inhibition of purified NE [2]: without reactive-site sequence similarity or known inhibitory activity

Ac-DNCQYVYNV-NH2 [DV-9]
inhibition of purified cathepsin G [1]: inhibitory activity to both purified cathepsin G and NE
inhibition of purified NE [2]: inhibitory activity to both purified cathepsin G and NE

TSP-1: matricellular protein that exists as a trimer of identical ~150–180 kDa subunits tethered together by disulfide bonds
inhibition of plasmin ([3]; in vitro, cleavage of fibrinogen): competitive inhibitor
predicted stoichiometry with plasmin ([3]; stoichiometric predictions): one mole of TSP-1 interacting with one mole of plasmin
reversible inhibition of CG ([4]; in the absence of calcium): enhanced
stoichiometry: mol of cathepsin G bound per 1 mol of TSP-1 trimer ([4]; in the presence of calcium): 2.9 ± 0.4 mol
inhibition of purified cathepsin G ([4]; purified enzyme, in vitro): binds and competitively inhibits
Kd ([4]; read-out: site binding constant, TSP-1 trimer, cathepsin G, in the presence of calcium): 7 ± 3.5 nM
neutrophil motility and chemotaxis [5]: can bind and induce the motility and chemotaxis of neutrophils in vitro
reversible inhibition of NE ([6]; in the absence of calcium): enhanced
stoichiometry: mol of NE bound per 1 mol of TSP-1 trimer ([6]; in the presence of calcium): 2.7 ± 0.3 mol
inhibition of purified NE ([6]; purified enzyme, in vitro): binds and competitively inhibits
Kd ([6]; read-out: site binding constant, TSP-1 trimer, NE, in the presence of calcium): 57 ± 13 nM

rTSP-1: recombinant TSP-1
bacterial killing function of thbs1^−/− neutrophils [7]: eliminated the enhanced bacterial killing function of thbs1^−/− neutrophils near to the level of WT neutrophils
